Laboratory results published in PubChem BioAssay AID256 (DTP/NCI, 2004).
Several values for one entry are separate records, joined by “and”; a condition that tells them apart may be missing. Equal values may be shown once. Toxic doses and inconclusive results are not listed. Rule for the calls: active = survival T/C of 150% or more; inactive = T/C below 125% in these data.

Tested on: CD2F1 mice, L1210 leukemia ip, survival T/C
Experiment: NCI In Vivo Anticancer Drug Screen. Data for tumor model L1210 Leukemia (intraperitoneal) in CD2F1 (CDF1) mice
Conditions: higher = longer survival
Summary of the method: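 Activity against a transplanted murine tumor was judged by comparing the compound group with a vehicle group. The outcome in the treated animals was divided by that in the controls.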

[1] = endpoint: mean survival time, dose: 100.0 mg/kg/injection, schedule: Q01DX001 (ip), vehicle: saline with Tween-80
[2] = endpoint: mean survival time, dose: 200.0 mg/kg/injection, schedule: Q01DX001 (ip), vehicle: saline with Tween-80
[3] = endpoint: mean survival time, dose: 400.0 mg/kg/injection, schedule: Q01DX001 (ip), vehicle: saline with Tween-80
[4] = endpoint: mean survival time, dose: 100.0 mg/kg/injection, schedule: Q04DX003 (ip), vehicle: saline
[5] = endpoint: mean survival time, dose: 200.0 mg/kg/injection, schedule: Q04DX003 (ip), vehicle: saline
[6] = endpoint: mean survival time, dose: 400.0 mg/kg/injection, schedule: Q04DX003 (ip), vehicle: saline
[7] = endpoint: mean survival time, dose: 50.0 mg/kg/injection, schedule: Q01DX009 (ip), vehicle: saline with Tween-80
[8] = endpoint: mean survival time, dose: 100.0 mg/kg/injection, schedule: Q01DX009 (ip), vehicle: saline with Tween-80
[9] = endpoint: mean survival time, dose: 200.0 mg/kg/injection, schedule: Q01DX009 (ip), vehicle: saline with Tween-80
[10] = endpoint: mean survival time, dose: 200.0 mg/kg/injection, schedule: Q04DX002 (ip), vehicle: saline with Tween-80

Measured: T/C

CC(=O)NC(CO)C1C(CO)OC(n2ccc(=O)[nH]c2=O)C1O (configuration not stated)
inactive: endpoint: mean survival time, dose: 6.25 mg/kg/injection, schedule: Q01DX005 (ip), vehicle: water 101 % of control | endpoint: mean survival time, dose: 12.5 mg/kg/injection, schedule: Q01DX005 (ip), vehicle: water 101 % of control | endpoint: mean survival time, dose: 25.0 mg/kg/injection, schedule: Q01DX005 (ip), vehicle: water 98 % of control | endpoint: mean survival time, dose: 50.0 mg/kg/injection, schedule: Q01DX005 (ip), vehicle: water 103 % of control | endpoint: mean survival time, dose: 100.0 mg/kg/injection, schedule: Q01DX005 (ip), vehicle: water 96 % of control

[N-]=[N+]=c1c(=O)c2ccccc2c1=O
inactive: [1] 96 % of control | [2] 94 % of control | [3] 104 % of control

OCCN=Cc1c(Cl)ccc(Cl)c1Cl
inactive: [4] 108 % of control | [5] 101 % of control | [6] 104 % of control

Nc1ncnc2c1ncn2C1OC(COP(=O)(O)O)C(O)C1O.[NH-]C1CCCCC1[NH-].[Pt+2] (configuration not stated)
inactive: endpoint: median survival time, dose: 3.12 mg/kg/injection, schedule: Q04DX003 (ip), vehicle: saline 101 % of control | endpoint: median survival time, dose: 6.25 mg/kg/injection, schedule: Q04DX003 (ip), vehicle: saline 108 % of control | endpoint: median survival time, dose: 12.5 mg/kg/injection, schedule: Q04DX003 (ip), vehicle: saline 103 % of control | endpoint: median survival time, dose: 25.0 mg/kg/injection, schedule: Q04DX003 (ip), vehicle: saline 108 % of control | endpoint: median survival time, dose: 50.0 mg/kg/injection, schedule: Q04DX003 (ip), vehicle: saline 112 % of control | endpoint: median survival time, dose: 100.0 mg/kg/injection, schedule: Q04DX003 (ip), vehicle: saline 108 % of control | endpoint: median survival time, dose: 200.0 mg/kg/injection, schedule: Q04DX003 (ip), vehicle: saline 122 % of control

C/C=C/C(=O)Nc1ccc(Cl)c(Cl)c1
inactive: endpoint: mean survival time, dose: 25.0 mg/kg/injection, schedule: Q01DX001 (ip), vehicle: saline with Tween-80 102 % of control | endpoint: mean survival time, dose: 50.0 mg/kg/injection, schedule: Q01DX001 (ip), vehicle: saline with Tween-80 101 % of control | [1] 95 % of control

O=C(O)c1cc2ccc(Cl)cc2c2cc(C(F)(F)F)ccc12
inactive: endpoint: mean survival time, dose: 18.8 mg/kg/injection, schedule: Q01DX009 (ip), vehicle: saline 97 % of control | endpoint: mean survival time, dose: 37.5 mg/kg/injection, schedule: Q01DX009 (ip), vehicle: saline 111 % of control | endpoint: mean survival time, dose: 75.0 mg/kg/injection, schedule: Q04DX003 (ip), vehicle: saline 95 % of control

SCCS
inactive: [7] 105 % of control | [8] 105 % of control | [9] 94 % of control | [10] 91 % of control

CCOc1ccc(/C=C(/C#N)C(N)=O)cc1
inactive: endpoint: mean survival time, dose: 50.0 mg/kg/injection, schedule: Q04DX003 (ip), vehicle: saline with Tween-80 97 % of control | endpoint: mean survival time, dose: 100.0 mg/kg/injection, schedule: Q04DX003 (ip), vehicle: saline with Tween-80 94 % of control | endpoint: mean survival time, dose: 200.0 mg/kg/injection, schedule: Q04DX003 (ip), vehicle: saline with Tween-80 92 % of control

O=C(Nc1ccccc1C(F)(F)F)n1c(=S)[nH]c2cc([N+](=O)[O-])ccc21
inactive: [7] 90 % of control | [8] 105 % of control | [9] 94 % of control

O=C(CCCN1CCC(C(O)c2ccc(F)cc2)CC1)c1ccc(F)cc1 (configuration not stated)
inactive: endpoint: median survival time, dose: 6.25 mg/kg/injection, schedule: Q01DX009 (ip), vehicle: saline with Tween-80 103 % of control and 109 % of control and 112 % of control | endpoint: median survival time, dose: 6.25 mg/kg/injection, schedule: Q06HX014 (oral), vehicle: saline with Tween-80 104 % of control | endpoint: median survival time, dose: 12.5 mg/kg/injection, schedule: Q01DX009 (ip), vehicle: saline with Tween-80 120 % of control and 108 % of control | endpoint: median survival time, dose: 12.5 mg/kg/injection, schedule: Q01DX009 (oral), vehicle: saline with Tween-80 111 % of control | endpoint: median survival time, dose: 12.5 mg/kg/injection, schedule: Q06HX014 (oral), vehicle: saline with Tween-80 105 % of control | endpoint: median survival time, dose: 25.0 mg/kg/injection, schedule: Q01DX009 (ip), vehicle: saline with Tween-80 121 % of control | endpoint: median survival time, dose: 25.0 mg/kg/injection, schedule: Q01DX009 (oral), vehicle: saline with Tween-80 105 % of control | endpoint: median survival time, dose: 25.0 mg/kg/injection, schedule: Q04DX003 (oral), vehicle: saline with Tween-80 102 % of control | endpoint: median survival time, dose: 25.0 mg/kg/injection, schedule: Q06HX014 (oral), vehicle: saline with Tween-80 105 % of control | endpoint: median survival time, dose: 29.7 mg/kg/injection, schedule: Q01DX009 (oral), vehicle: saline with Tween-80 109 % of control | endpoint: median survival time, dose: 44.5 mg/kg/injection, schedule: Q01DX009 (oral), vehicle: saline with Tween-80 111 % of control | endpoint: median survival time, dose: 50.0 mg/kg/injection, schedule: Q01DX009 (ip), vehicle: saline with Tween-80 123 % of control and 124 % of control | endpoint: median survival time, dose: 50.0 mg/kg/injection, schedule: Q01DX009 (oral), vehicle: saline with Tween-80 115 % of control | endpoint: median survival time, dose: 50.0 mg/kg/injection, schedule: Q04DX003 (oral), vehicle: saline with Tween-80 112 % of control | endpoint: median survival time, dose: 50.0 mg/kg/injection, schedule: Q06HX014 (oral), vehicle: saline with Tween-80 113 % of control | endpoint: median survival time, dose: 66.7 mg/kg/injection, schedule: Q01DX009 (oral), vehicle: saline with Tween-80 118 % of control | endpoint: median survival time, dose: 100.0 mg/kg/injection, schedule: Q01DX009 (ip), vehicle: saline with Tween-80 118 % of control | endpoint: median survival time, dose: 100.0 mg/kg/injection, schedule: Q01DX009 (oral), vehicle: saline with Tween-80 118 % of control | endpoint: median survival time, dose: 100.0 mg/kg/injection, schedule: Q04DX003 (oral), vehicle: saline with Tween-80 111 % of control | endpoint: median survival time, dose: 200.0 mg/kg/injection, schedule: Q04DX003 (oral), vehicle: saline with Tween-80 115 % of control

CN(C)C(CCN1CCCCC1)CN1CCCCC1 (configuration not stated)
inactive: endpoint: mean survival time, dose: 100.0 mg/kg/injection, schedule: Q01DX009 (ip), vehicle: saline 101 % of control | [4] 101 % of control | endpoint: mean survival time, dose: 200.0 mg/kg/injection, schedule: Q01DX009 (ip), vehicle: saline 98 % of control | [5] 101 % of control | endpoint: mean survival time, dose: 400.0 mg/kg/injection, schedule: Q01DX009 (ip), vehicle: saline 102 % of control | [6] 98 % of control

Cc1ccc(S(=O)(=O)Oc2cc([N+](=O)[O-])ccc2N)cc1
inactive: [4] 95 % of control | [5] 100 % of control | [6] 103 % of control

CC1CC/C(=N/NC(N)=O)C1 (configuration not stated)
inactive: endpoint: mean survival time, dose: 50.0 mg/kg/injection, schedule: Q01DX001 (ip), vehicle: carboxymethylcellulose (CMC) 100 % of control | endpoint: mean survival time, dose: 100.0 mg/kg/injection, schedule: Q01DX001 (ip), vehicle: carboxymethylcellulose (CMC) 94 % of control | endpoint: mean survival time, dose: 200.0 mg/kg/injection, schedule: Q01DX001 (ip), vehicle: carboxymethylcellulose (CMC) 100 % of control | endpoint: mean survival time, dose: 400.0 mg/kg/injection, schedule: Q01DX001 (ip), vehicle: carboxymethylcellulose (CMC) 100 % of control

c1ccc2c3c(ccc2c1)OCN(C12CC4CC(CC(C4)C1)C2)C3
inactive: [8] 96 % of control | [9] 102 % of control | endpoint: mean survival time, dose: 400.0 mg/kg/injection, schedule: Q01DX009 (ip), vehicle: saline with Tween-80 90 % of control

Cc1cccc(Oc2ccc(C(F)(F)F)cc2[N+](=O)[O-])c1
inactive: [1] 98 % of control | [2] 90 % of control | [3] 91 % of control

O/N=C/C(O)(c1ccccc1)c1ccccc1
inactive: endpoint: mean survival time, dose: 100.0 mg/kg/injection, schedule: Q04DX002 (ip), vehicle: saline with Tween-80 107 % of control | [10] 100 % of control

CCOC(C[N+](C)(C)C)OCC
inactive: [7] 100 % of control | [8] 94 % of control
